Results on 16 molecules are retold here after PubChem BioAssay AID292 (DTP/NCI, 2004).

“And” between values parts separate entries of the source, which are not always exact repeats. Identical values can stand only once. Toxic doses and inconclusive results are not listed.

For this assay, the system named is B6C3F1 mice, ip Sarcoma M5076, median survival T/C. The assay can be described thus: NCI In Vivo Anticancer Drug Screen. Data for tumor model Sarcoma M5076 (intraperitoneal) in B6C3F1 mice. The conditions noted are these: endpoint: median survival time, higher = longer survival. The method in brief:
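Survival measured in treated (T) and vehicle control (C) mice with transplantable tumour; result given as T divided by C.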

[1] abbreviates: dose: 25.0 mg/kg/injection, schedule: Q04DX004 (ip), vehicle: saline with Tween-80.
[2] abbreviates: dose: 50.0 mg/kg/injection, schedule: Q04DX004 (ip), vehicle: saline with Tween-80.
The mark [3] stands for this setting: dose: 100.0 mg/kg/injection, schedule: Q04DX004 (ip), vehicle: saline with Tween-80.
The mark [4] stands for this setting: dose: 18.75 mg/kg/injection, schedule: Q04DX004 (ip), vehicle: saline with Tween-80.
[5] abbreviates: dose: 37.5 mg/kg/injection, schedule: Q04DX004 (ip), vehicle: saline with Tween-80.
[6] abbreviates: dose: 75.0 mg/kg/injection, schedule: Q04DX004 (ip), vehicle: saline with Tween-80.
Setting [7] is: dose: 150.0 mg/kg/injection, schedule: Q04DX004 (ip), vehicle: saline with Tween-80.
[8] abbreviates: dose: 200.0 mg/kg/injection, schedule: Q04DX004 (ip), vehicle: saline with Tween-80.
[9] abbreviates: dose: 400.0 mg/kg/injection, schedule: Q04DX004 (ip), vehicle: saline with Tween-80.
The mark [10] stands for this setting: dose: 25.0 mg/kg/injection, schedule: Q04DX004 (ip), vehicle: water.
The mark [11] stands for this setting: dose: 50.0 mg/kg/injection, schedule: Q04DX004 (ip), vehicle: water.
[12] abbreviates: dose: 800.0 mg/kg/injection, schedule: Q04DX004 (ip), vehicle: saline with Tween-80.
Setting [13] is: dose: 50.0 mg/kg/injection, schedule: Q04DX004 (ip), vehicle: Klucel (hydroxypropylcellulose) (HPC).
[14] abbreviates: dose: 100.0 mg/kg/injection, schedule: Q04DX004 (ip), vehicle: Klucel (hydroxypropylcellulose) (HPC).
The mark [15] stands for this setting: dose: 200.0 mg/kg/injection, schedule: Q04DX004 (ip), vehicle: Klucel (hydroxypropylcellulose) (HPC).
The mark [16] stands for this setting: dose: 400.0 mg/kg/injection, schedule: Q04DX004 (ip), vehicle: Klucel (hydroxypropylcellulose) (HPC).
The mark [17] stands for this setting: dose: 800.0 mg/kg/injection, schedule: Q04DX004 (ip), vehicle: Klucel (hydroxypropylcellulose) (HPC).

`N#Cc1c(N)[nH]c2ccc(Sc3ccccc3)cc12`: the T/C (dose: 6.25 mg/kg/injection, schedule: Q04DX004 (ip), vehicle: saline with Tween-80) is 101 % of control; the T/C (dose: 12.5 mg/kg/injection, schedule: Q04DX004 (ip), vehicle: saline with Tween-80) is 112 % of control; the T/C (dose: 15.0 mg/kg/injection, schedule: Q04DX004 (ip), vehicle: saline with Tween-80) was 108 % of control; the T/C under setting [1] was 109 % of control; the T/C (dose: 30.0 mg/kg/injection, schedule: Q04DX004 (ip), vehicle: saline with Tween-80) is 97 % of control; the T/C (dose: 36.0 mg/kg/injection, schedule: Q04DX004 (ip), vehicle: saline with Tween-80) was 104 % of control. Further, the T/C reads like this: under setting [2], 114 % of control; (dose: 60.0 mg/kg/injection, schedule: Q04DX004 (ip), vehicle: saline with Tween-80) 95 % of control and 104 % of control; under setting [3], 116 % of control; (dose: 120.0 mg/kg/injection, schedule: Q04DX004 (ip), vehicle: saline with Tween-80) 110 % of control; (dose: 240.0 mg/kg/injection, schedule: Q04DX004 (ip), vehicle: saline with Tween-80) 113 % of control.
As for `C=CC(=O)OCCOCN(COCCOC(=O)C=C)c1nc(N(COCCOC(=O)C=C)COCCOC(=O)C=C)nc(N(COCCOC(=O)C=C)COCCOC(=O)C=C)n1`, the T/C is, setting by setting: under setting [4], 103 % of control; under setting [5], 100 % of control; under setting [6], 110 % of control; under setting [7], 104 % of control.
As for `COc1cc2cc(c1Cl)N(C)C(=O)C[C@H](OC(=O)[C@H](C)N(C)C(C)=O)[C@]1(C)O[C@H]1[C@H](C)[C@@H]1C[C@@](O)(NC(=O)O1)[C@H](OC)C=C/C=C(\C)C2`, the T/C (dose: 18.75 micrograms/kg/injection, schedule: Q04DX004 (ip), vehicle: saline) is 101 % of control; the T/C (dose: 37.5 micrograms/kg/injection, schedule: Q04DX004 (ip), vehicle: saline) is 103 % of control and 119 % of control; the T/C (dose: 37.5 micrograms/kg/injection, schedule: Q04DX005 (ip), vehicle: saline) is 108 % of control and 217 % of control; the T/C (dose: 75.0 micrograms/kg/injection, schedule: Q04DX004 (ip), vehicle: saline) is 112 % of control; the T/C (dose: 75.0 micrograms/kg/injection, schedule: Q04DX005 (ip), vehicle: saline) is 119 % of control; the T/C (dose: 150.0 micrograms/kg/injection, schedule: Q04DX004 (ip), vehicle: saline) was 114 % of control. Also, the T/C (dose: 300.0 micrograms/kg/injection, schedule: Q04DX004 (ip), vehicle: saline) is 114 % of control.
On to `COC1CCCCC1C(N)C(=O)O` (centres undefined) (tested in a mixture with another compound), for which the T/C runs as follows: under setting [1], 100 % of control; under setting [2], 91 % of control; under setting [3], 95 % of control; under setting [8], 95 % of control; under setting [9], 93 % of control.
`CCc1nc(N)nc(N)c1-c1ccc(Cl)c(N=[N+]=[N-])c1`: the T/C by setting is: (dose: 8.37 mg/kg/injection, schedule: Q04DX004 (ip), vehicle: water) 107 % of control; (dose: 16.75 mg/kg/injection, schedule: Q04DX004 (ip), vehicle: water) 108 % of control; (dose: 33.5 mg/kg/injection, schedule: Q04DX004 (ip), vehicle: distilled water + Tween-80) 102 % of control; (dose: 33.5 mg/kg/injection, schedule: Q04DX004 (ip), vehicle: water) 119 % of control; (dose: 67.0 mg/kg/injection, schedule: Q04DX004 (ip), vehicle: distilled water + Tween-80) 109 % of control; (dose: 134.0 mg/kg/injection, schedule: Q04DX004 (ip), vehicle: distilled water + Tween-80) 102 % of control. Further, the T/C (dose: 536.0 mg/kg/injection, schedule: Q04DX004 (ip), vehicle: distilled water + Tween-80) was 174 % of control.
As to `Oc1cccc2ccccc12`, the T/C under setting [10] was 100 % of control; the T/C under setting [11] was 105 % of control; the T/C (dose: 100.0 mg/kg/injection, schedule: Q04DX004 (ip), vehicle: water) was 98 % of control.
Take `CC(C)(C)c1ccc(C(=O)N2CCOC23CCCCC3)cc1`: the T/C by setting is: under setting [2], 101 % of control and 103 % of control; under setting [3], 93 % of control and 103 % of control; under setting [8], 97 % of control and 98 % of control; under setting [9], 91 % of control and 100 % of control; under setting [12], 89 % of control and 93 % of control.
Take `COC(=O)C1(F)C(=O)NC(=O)NC1OC` (centres undefined): the T/C reads like this: under setting [13], 100 % of control and 102 % of control; under setting [14], 106 % of control and 116 % of control; under setting [15], 104 % of control and 113 % of control; under setting [16], 109 % of control and 113 % of control; under setting [17], 102 % of control and 116 % of control.
Take `O=[n+]1c2c(n([O-])c3cc(Cl)c(Cl)cc31)CCCC2`: the T/C reads like this: under setting [4], 99 % of control; under setting [5], 97 % of control; under setting [6], 100 % of control; under setting [7], 97 % of control; (dose: 300.0 mg/kg/injection, schedule: Q04DX004 (ip), vehicle: saline with Tween-80) 95 % of control.
In the case of `COC1C(O)CC(OC2CC(Oc3cc4cc5c(c(O)c4c(O)c3C)C(=O)[C@@H](OC3CC(OC4CC(OC6CC(C)(O)C(OC(C)=O)C(C)O6)C(O)C(C)O4)C(O)C(C)O3)[C@H]([C@H](OC)C(=O)[C@@H](O)[C@@H](C)O)C5)OC(C)C2OC(C)=O)OC1C` (some centres undefined), the T/C is 110 % of control (dose: 37.5 micrograms/kg/injection, schedule: Q04DX004 (ip), vehicle: water) and 111 % of control (dose: 75.0 micrograms/kg/injection, schedule: Q04DX004 (ip), vehicle: water).
Turning to `O=C1CSC(c2cccs2)N1c1nncs1` (centres undefined), the T/C by setting is: under setting [13], 102 % of control and 111 % of control; under setting [14], 98 % of control and 106 % of control; under setting [15], 98 % of control and 106 % of control; under setting [16], 111 % of control; under setting [17], 122 % of control.
`COc1ccc(OC)c(Cc2cnc3nc(N)nc(N)c3c2C)c1`: the T/C runs as follows: under setting [10], 95 % of control; under setting [11], 115 % of control.
In the case of `Cc1ccc(-n2c(CSc3ccc(Cl)cc3)nnc2SCc2nc3ccccc3[nH]2)cc1`, the T/C under setting [4] was 95 % of control, the T/C under setting [5] is 104 % of control, the T/C under setting [6] was 100 % of control and the T/C under setting [7] is 95 % of control.
On to `Cc1ccc2c(c1)C1(SC(C)C(=O)N1c1ccc(Cl)cc1)C(=O)N2` (centres undefined), for which the T/C by setting is: under setting [2], 96 % of control; under setting [3], 101 % of control; under setting [8], 98 % of control; under setting [9], 93 % of control; under setting [12], 86 % of control.
In the case of `O=C(Nc1ccccc1[N+](=O)[O-])C1C(=O)C(=O)N(c2ccccc2[N+](=O)[O-])C1=O` (centres undefined), the T/C was 101 % of control under setting [13], 89 % of control under setting [14] and 92 % of control under setting [15].
Take `N=C(N)SCc1cccc2c(=O)cc(-c3ccccc3)oc12`: the T/C is 98 % of control (dose: 50.0 mg/kg/injection, schedule: Q04DX004 (ip), vehicle: saline); 114 % of control (dose: 50.0 mg/kg/injection, schedule: Q04DX004 (ip), vehicle: suspension in saline); 102 % of control (dose: 100.0 mg/kg/injection, schedule: Q04DX004 (ip), vehicle: saline); 104 % of control (dose: 100.0 mg/kg/injection, schedule: Q04DX004 (ip), vehicle: suspension in saline); 105 % of control and 112 % of control (dose: 144.0 mg/kg/injection, schedule: Q04DX004 (ip), vehicle: suspension in saline); 106 % of control (dose: 200.0 mg/kg/injection, schedule: Q04DX004 (ip), vehicle: saline). For the same molecule, the T/C reads like this: (dose: 200.0 mg/kg/injection, schedule: Q04DX004 (ip), vehicle: suspension in saline) 104 % of control; (dose: 240.0 mg/kg/injection, schedule: Q04DX004 (ip), vehicle: suspension in saline) 101 % of control and 109 % of control; (dose: 400.0 mg/kg/injection, schedule: Q04DX004 (ip), vehicle: saline) 102 % of control; (dose: 666.67 mg/kg/injection, schedule: Q04DX004 (ip), vehicle: suspension in saline) 101 % of control; (dose: 1111.11 mg/kg/injection, schedule: Q04DX004 (ip), vehicle: suspension in saline) 100 % of control.
